This passage reports EC50 and Efficacy results from patent US20120059037A1, “SUBSTITUTED PYRIDINE DERIVATIVES AND THEIR MEDICAL USE” (NEUROSEARCH A/S, priority 2009, published 2012).

What is called EC50 is the concentration that produces a half-maximal response. A lower EC50 goes with a more potent agent.

For this assay, the target named is T1, human Kv7.2+3 (Homo sapiens, UniProt O43525+O43526).
T1 construct: expressed in transfected cells; host or cells: HEK293
The experiment in a line: FLIPR-based characterization of Kv7.2+3 modulators (thallium influx). It counts as cell-based. The note with it: HEK293 cells over-expressing human Kv7.2+3; for EC50: Tl+ influx, BTC-AM, FLIPR, relative to retigabine control responses; for Efficacy: maximal response relative to the reference (retigabine) response. How it is done:
This experiment determines the ability of a test compound to modulate the activity of Kv7.2+3 channels heterologously expressed in human HEK293 cells. The ability is determined relative to retigabine. The activity is determined using a standard thallium (I) sensitive assay, e.g. using a fluorometric method in a Fluorescent Image Plate Reader (FLIPR) as described below in more detail.
Full concentration/response curves are generated and EC50 values are calculated based on max values. EC50 values (Effective Concentration) represent the concentration of the test substance, at which 50% of the channel activity is obtained when compared to retigabine control responses. Maximal response determined relative to the reference (retigabine) response is calculated.
Human HEK293 cells over-expressing human Kv7.2+3 are grown in culture medium (DMEM supplemented with 10% foetal bovine serum), in polystyrene culture flasks ([…]) in a humidified atmosphere of 5% CO2 in air, at 37° C. Cell confluence should be 80-90% on day of plating. Cells are rinsed with 4 ml of PBS (phosphate buffered saline) and incubated 2 min with 1 ml of Trypsin-EDTA. After addition of 25 ml of culture medium cells are re-suspended by trituration with a 25 ml pipette.
The cells are seeded at a density of ˜3×10^6 cells/ml (25 μl/well) in black-walled, clear bottom, 384-well plates pre-treated with 0.01 g/l poly-D-lysin (20 μl/well for ≧30 min). Plated cells were allowed to proliferate for 24 h before loading with dye.
BTC-AM (50 mg, Invitrogen) is added 25.5 μl DMSO. The BTC-AM stock solution (2 mM) is diluted to a final concentration of 2 μM in Cl^− free assay buffer (in mM: 140 Na^+-gluconate, 2.5 K^+-gluconate, 6 Ca2^+-gluconate, 1 Mg^2+ gluconate, 5 glucose, 10 HEPES, pH 7.3) containing 2 μM ouabain, 2 mM amaranth and 1 mM tartrazine.
The culture medium is aspirated from the wells, the cells are washed thrice in Cl^− free assay buffer, and 25 μl of the BTC-AM loading solution is added to each well. The cells are incubated at 37° C. for 60 min.
After the loading period, the Tl^+-sensitive BTC fluorescence signal is measured over time using a FLIPR.
• Temperature: Room temp. • First addition: 12 μl test or control compound after 15 sec at a rate of 30 μl/sec and starting height of 20 μl • Second addition: 12 μl stimulus buffer (Cl^− free assay buffer supplemented with 1 mM Tl2SO4, 5 mM K2SO4 as well as the quenchers amaranth (2 mM) and tartrazine (1 mM)) is added after an additional 3 minutes at a rate of 30 μl/sec and starting height of 30 μl • Reading intervals: First sequence—3 sec×5, 2 sec×24 and 5 sec×25 • Second sequence—1 sec×5, 2 sec×24 and 5 sec×36 Addition plates (compound plate and stimulus plate) are placed in positions 2 and 3, respectively. Cell plates are placed in position 1 and run using the “KCNQ (two additions)” program. FLIPR will then take the appropriate measurements in accordance with the interval settings above. Fluorescence obtained after stimulation is corrected for the mean basal fluorescence (in Cl^− free assay buffer).
Full concentration/response curves are generated and EC50 values (“Effective Concentration”; the concentration at which 50% of the channel activity is obtained when compared to retigabine control responses) are calculated based on peak values. Maximal response determined relative to the reference (retigabine) response is calculated.

Turning to `O=C(Cc1cc(F)cc(F)c1)Nc1ccc(NCc2ccc(Cl)nc2)nc1N1CCCC1` [Compound 1.1, N-{6-[(6-Chloro-pyridin-3-ylmethyl)-amino]-2-pyrrolidin-1-yl-pyridin-3-yl}-2-(3,5-difluoro-phenyl)-acetamide], the midpoint of the response, the EC50, lay at 66 nM and the Efficacy is given as 100%.
Taken in the same sequence, the figures for `O=C(Cc1cc(F)cc(F)c1)Nc1ccc(NCc2cccnc2)nc1N1CCCC1` [Compound 1.2, 2-(3,5-Difluoro-phenyl)-N-{6-[(pyridin-3-ylmethyl)-amino]-2-pyrrolidin-1-yl-pyridin-3-yl}-acetamide] were 20 nM and 108%.
`CC(C)(C)CC(=O)Nc1ccc(NCc2ccc(Cl)nc2)nc1N1CCCC1` [Compound 1.3, N-{6-[(6-Chloro-pyridin-3-ylmethyl)-amino]-2-pyrrolidin-1-yl-pyridin-3-yl}-3,3-dimethyl-butyramide]: the EC50 amounted to 66 nM and the Efficacy stood at 100%.
